Measured values taken from publication PMC11510591, “In Vitro Evaluation of Pharmacokinetic Properties of Selected Dual COX-2 and 5-LOX Inhibitors” (Pharmaceuticals, 2024).
Values joined by “and” are separate entries in the source; they are usually repeats but may differ in a detail not shown here. Equal values may be shown once.

Key:
[1] = PAMPA test (hexadecane membrane), passive gastrointestinal absorption; assay type: in vitro ADME; details: for Papp at 5 h, 0.05 mM / –logPe: donor pH 5.5, acceptor pH 7.4, 5 h, room temperature; for Papp at 5 h, 0.05 mM: read-out: Pe (effective passive permeability coefficient)
Description: The PAMPA test uses a 96-well plate coated with an impregnated filter material, forming an artificial membrane that separates donor and acceptor compartments. Egg lecithin in dodecane is commonly used to simulate membrane lipids, while hexadecane is effective for mimicking gastrointestinal membranes. […] Therefore, hexadecane dissolved in hexane was chosen in this study.
The phosphate buffer solution was prepared by dissolving 0.5292 g of NaH2PO4 × H2O and 0.0234 g of Na2HPO4 in purified water (200 mL). The phosphate buffer was divided into two portions, and the pH was adjusted to pH 5.5 and pH 7.4 using o-phosphoric acid. The donor solutions were prepared by diluting the stock solutions (5 mM DMSO solutions) with the buffer pH 5.5 to obtain the final concentration of 0.05 mM (the DMSO concentration in the donor solutions was 1%), while the acceptor solution was prepared as a 1% DMSO solution in the buffer pH 7.4. The use of DMSO as a cosolvent in PAMPA is necessary in cases of low-soluble compounds. It is usually used in concentrations up to 5% [25, 55, 56, 57].
The PAMPA test was performed according to the literature procedure using a 96-well microtiter polycarbonate filter plate (Merck Millipore, Carrigtwohill, Ireland) that was impregnated with 15 µL of a hexadecane/hexane (5:95, v/v) solution [52]. Donor solutions (300 µL per well) were transferred into each well of the donor plate. Acceptor solution was transferred into each well (300 µL per well) of the acceptor plate (MSSACCEPTOR, Millipore, Burlington, MA, USA) and covered by the donor plate to create a PAMPA sandwich. The system was incubated at room temperature for 5 h at a vibratory mixer. After incubation, the PAMPA sandwich was dissociated, and concentrations of all tested compounds in each well, as well as in the starting solutions, were determined using the HPLC method (Section 3.3.1).
The concentrations of tested compounds in the starting solutions, as well as in the donor and acceptor sections after incubation, were determined by the HPLC method on the Dionex Ultimate 3000 (Thermo Fisher Scientific, Waltham, MA, USA) equipped with a quaternary pump, autosampler, and DAD detector using a ZORBAX Eclipse XDB-C18 4.6 × 150 mm, 5 µm column (Agilent Technologies, Santa Clara, CA, USA).
R represents the retention, which is defined as the fraction of the tested compound retained in the PAMPA membrane (filters and plate materials), CD(t) is the concentration of a tested compound in a donor compartment after incubation time t, CA(t) is the concentration of a tested compound in an acceptor compartment after incubation time t, while CD(0) represents the concentration of a tested compound in a donor compartment at the beginning of the incubation (starting solution).

[2] = biological target: T1, human serum albumin (HSA) (Homo sapiens, UniProt P02768); assay type: binding; details: CHIRALPAK HSA column, ammonium acetate buffer pH 7.0/acetonitrile 85:15, 25 °C
T1 construct: purchased Sigma-Aldrich
Description: Recently, interactions of many newly synthesized structurally diverse compounds with HSA were successfully studied using this technique. The degree of binding of the tested compounds to HSA was evaluated based on their retention behavior on the stationary phase modified with HSA. The logarithmic values of retention factors (logk) were used to evaluate indirectly and compare the drug–HSA interaction.
HPAC analysis was performed on an Agilent 1200 Series chromatograph (Agilent Technologies, Santa Clara, CA, USA). […] The mobile phase consisted of ammonium acetate buffer (pH 7.0; 0.01 M) and acetonitrile (85:15, v/v). The flow rate was 0.6 mL/min, the temperature was set to 25 °C, and the detection of tested compounds was carried out at 283 nm. Tested compounds were dissolved in DMSO (at a concentration of 1 mg/mL), further diluted with the mobile phase to a final concentration of 0.05 mg/mL, and analyzed in triplicate. The HPAC conditions were selected not only with the aim of achieving satisfactory retention characteristics of all synthesized compounds but also taking into account recommendations of a column manufacturer. Retention factors were calculated using Equation (1), where t0 (column dead time) was the retention time of DMSO at 220 nm.

zebrafish embryos = test system: zebrafish embryos; set-up: method as in PMID 38931946; details: at therapeutic doses; cited from earlier work

T1 sequence (P02768 25-609): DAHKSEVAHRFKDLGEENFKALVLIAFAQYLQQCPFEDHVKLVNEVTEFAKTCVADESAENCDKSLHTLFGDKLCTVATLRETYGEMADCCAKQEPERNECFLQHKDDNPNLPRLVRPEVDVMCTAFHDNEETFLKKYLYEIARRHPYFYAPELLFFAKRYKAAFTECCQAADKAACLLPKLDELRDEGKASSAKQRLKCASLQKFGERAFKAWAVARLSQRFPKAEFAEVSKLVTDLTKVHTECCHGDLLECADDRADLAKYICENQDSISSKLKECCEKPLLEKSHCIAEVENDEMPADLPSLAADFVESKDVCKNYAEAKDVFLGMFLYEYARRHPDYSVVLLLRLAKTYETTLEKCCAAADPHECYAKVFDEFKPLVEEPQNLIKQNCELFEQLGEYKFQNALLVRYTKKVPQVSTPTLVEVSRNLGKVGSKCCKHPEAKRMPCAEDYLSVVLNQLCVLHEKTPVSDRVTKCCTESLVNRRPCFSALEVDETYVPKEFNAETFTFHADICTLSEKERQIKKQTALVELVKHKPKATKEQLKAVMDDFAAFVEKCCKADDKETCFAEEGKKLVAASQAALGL

SMILES	Membrane retention (R) ([1]; PAMPA)	Papp at 5 h, 0.05 mM ([1]; PAMPA)	–logPe [1]	Retention Factors (logk) [2]	toxic effects on zebrafish embryos (zebrafish embryos)
CC(=O)N(O)C(C)c1ccc(CC(C)C)cc1 (centres unmarked) [Compound 11]	24%	146 ×10⁻⁶ cm/s	3.84 ± 0.05	–	–
COc1ccc2c(c1)c(CNC(=O)NO)c(C)n2C(=O)c1ccc(Cl)cc1 [Compound 1]	–	42.9 ×10⁻⁶ cm/s	–	–	–
COc1ccc2cc(C(C)N(O)C(C)=O)ccc2c1 (centres unmarked) [Compound 12]	–	157 ×10⁻⁶ cm/s	3.81 and 3.81 ± 0.04	2.03 ± 0.02	–
O=C(NO)NCc1ccccc1Nc1c(Cl)cccc1Cl [Compound 3]	–	77.3 ×10⁻⁶ cm/s	4.11 ± 0.02	–	did not show toxic effects
CC(NC(=O)NO)c1ccc(-c2ccccc2)c(F)c1 (centres unmarked) [Compound 2]	–	17.6 ×10⁻⁶ cm/s	–	–	–
